Legend:
[1] = Feeding experiment on Beagle hounds (body weight, feed consumption, behaviour and general state); type: in vivo
Method: The efficacy of the compounds of the formula I for the treatment of obesity can be determined in vivo as follows (cf. Example B): A certain dose or varying doses of the test compound is administered to one group of experimental animals over an extended period. The amount of feed consumed and the body weight of the experimental animals are recorded regularly. At the same time, the behaviour and general state of the animals are monitored in a manner known per se. Conclusions can be drawn on the suitability of the test compound for the treatment of obesity from the decrease in the body weight and the take-up of feed in the experimental period with an otherwise unchanged general state and in the absence of changes in behaviour. The test substance in the form of hard gelatine capsules produced as described in Example B7 is administered once daily over a period of 11 days to a group of Beagle hounds about 8 months old which had been dewormed in advance. The amount of feed consumed is determined daily by re-weighing the unconsumed feed, the body weight before (day 0), during (day 5) and after (day 12) the feeding experiment. At the same time, the behaviour and general state of the animals are monitored over the entire experimental period. Drinking water in unlimited amount is available to the dogs. […] The behaviour and general state of the dogs are not impaired in the experimental period by the administration of the test substance.

[2] = as above; type: in vivo; remark: listed apart in the source
[3] = Beagle hounds, once daily oral capsules over 11 days

Cl.N#Cc1c[nH]c2c(C(=O)N3CCN(CCc4ccc(F)cc4)CC3)cccc12 [(3-cyano-1H-indol-7-yl)[4-(4-fluoro-phenethyl)piperazin-1-yl]methanone, hydrochloride]
body weight ([1]; Dog 8910 (male), day 0, before dosing): 8.6 kg | feed consumption ([1]; Dog 8910 (male), day 2, dose 10 mg/kg): 320 g | body weight ([1]; Dog 8910 (male), day 5, once daily capsules 3, 10, 30 mg/kg days 1-3, 100 mg/kg from day 4): 8.6 kg | feed consumption ([1]; Dog 8910 (male), day 6, dose 100 mg/kg): 240 g | feed consumption ([1]; Dog 8910 (male), day 10, dose 100 mg/kg): 20 g | body weight ([1]; Dog 8910 (male), day 12, after 3, 10, 30 mg/kg days 1-3 and 100 mg/kg days 4-11): 7.8 kg | feed consumption ([1]; Dog 8936 (female), day 6, dose 100 mg/kg): 140 g | behaviour and general state of the dogs ([2]; Beagle hounds, experimental period, doses up to 100 mg/kg): not impaired | body weight change (in words) [2, 3]: significant reduction in body weight | consumption of feed during the experiment (in words) [2, 3]: increasingly restrict the consumption of feed | body weight ([2]; Dog 1201 (male), day 0, before dosing): 6.8 kg | feed consumption ([2]; Dog 1201 (male), day 1, no dose yet (dosing starts day 5)): 440 g | feed consumption ([2]; Dog 1201 (male), day 2, no dose yet (dosing starts day 5)): 260 g | feed consumption ([2]; Dog 1201 (male), day 3, no dose yet (dosing starts day 5)): 400 g | feed consumption ([2]; Dog 1201 (male), day 4, no dose yet (dosing starts day 5)): 230 g | feed consumption ([2]; Dog 1201 (male), day 5, dose 50 mg/kg): 340 g | body weight ([2]; Dog 1201 (male), day 5, first day of 50 mg/kg): 7.1 kg | feed consumption ([2]; Dog 1201 (male), day 6, dose 50 mg/kg): 220 g | feed consumption ([2]; Dog 1201 (male), day 7, dose 50 mg/kg): 160 g | feed consumption ([2]; Dog 1201 (male), day 8, dose 50 mg/kg): 170 g | feed consumption ([2]; Dog 1201 (male), day 9, dose 50 mg/kg): 130 g | feed consumption ([2]; Dog 1201 (male), day 10, dose 50 mg/kg): 80 g | feed consumption ([2]; Dog 1201 (male), day 11, dose 50 mg/kg): 40 g | body weight ([2]; Dog 1201 (male), day 12, after 50 mg/kg days 5-11): 6.3 kg | body weight ([2]; Dog 2164 (female), day 0, before dosing): 6.1 kg | feed consumption ([2]; Dog 2164 (female), day 1, no dose yet (dosing starts day 5)): 310 g | feed consumption ([2]; Dog 2164 (female), day 2, no dose yet (dosing starts day 5)): 270 g | feed consumption ([2]; Dog 2164 (female), day 3, no dose yet (dosing starts day 5)): 280 g | feed consumption ([2]; Dog 2164 (female), day 4, no dose yet (dosing starts day 5)): 280 g | feed consumption ([2]; Dog 2164 (female), day 5, dose 50 mg/kg): 340 g | body weight ([2]; Dog 2164 (female), day 5, first day of 50 mg/kg): 5.9 kg | feed consumption ([2]; Dog 2164 (female), day 6, dose 50 mg/kg): 180 g | feed consumption ([2]; Dog 2164 (female), day 7, dose 50 mg/kg): 260 g | feed consumption ([2]; Dog 2164 (female), day 8, dose 50 mg/kg): 150 g | feed consumption ([2]; Dog 2164 (female), day 9, dose 50 mg/kg): 140 g | feed consumption ([2]; Dog 2164 (female), day 10, dose 50 mg/kg): 130 g | feed consumption ([2]; Dog 2164 (female), day 11, dose 50 mg/kg): 60 g | body weight ([2]; Dog 2164 (female), day 12, after 50 mg/kg days 5-11): 5.5 kg | feed consumption ([2]; Dog 8910 (male), day 1, dose 3 mg/kg): 380 g | feed consumption ([2]; Dog 8910 (male), day 3, dose 30 mg/kg): 370 g | feed consumption ([2]; Dog 8910 (male), day 4, dose 100 mg/kg): 320 g | feed consumption ([2]; Dog 8910 (male), day 5, dose 100 mg/kg): 250 g | feed consumption ([2]; Dog 8910 (male), day 7, dose 100 mg/kg): 60 g | feed consumption ([2]; Dog 8910 (male), day 8, dose 100 mg/kg): 60 g | feed consumption ([2]; Dog 8910 (male), day 9, dose 100 mg/kg): 40 g | feed consumption ([2]; Dog 8910 (male), day 11, dose 100 mg/kg): 90 g | body weight ([2]; Dog 8936 (female), day 0, before dosing): 7.5 kg | feed consumption ([2]; Dog 8936 (female), day 1, dose 3 mg/kg): 380 g | feed consumption ([2]; Dog 8936 (female), day 2, dose 10 mg/kg): 380 g | feed consumption ([2]; Dog 8936 (female), day 3, dose 30 mg/kg): 360 g | feed consumption ([2]; Dog 8936 (female), day 4, dose 100 mg/kg): 220 g | feed consumption ([2]; Dog 8936 (female), day 5, dose 100 mg/kg): 200 g | body weight ([2]; Dog 8936 (female), day 5, once daily capsules 3, 10, 30 mg/kg days 1-3, 100 mg/kg from day 4): 7.3 kg | feed consumption ([2]; Dog 8936 (female), day 7, dose 100 mg/kg): 80 g | feed consumption ([2]; Dog 8936 (female), day 8, dose 100 mg/kg): 30 g | feed consumption ([2]; Dog 8936 (female), day 9, dose 100 mg/kg): 30 g | feed consumption ([2]; Dog 8936 (female), day 10, dose 100 mg/kg): 70 g | feed consumption ([2]; Dog 8936 (female), day 11, dose 100 mg/kg): 10 g | body weight ([2]; Dog 8936 (female), day 12, after 3, 10, 30 mg/kg days 1-3 and 100 mg/kg days 4-11): 6.2 kg

Reference: patent US20050014766A1, “Use of n-(indolecarbonyl-)piperazine derivatives” (priority 2002, published 2005)
